Patent US20140363379A1, “NUTRITIONAL APPROACH TO THE USE OF ERGOTHIONEINE AND VITAMIN D2 FOR HAIR, NAIL AND SKIN GROWTH” (ENTIA BIOSCIENCES, INC., priority 2011, published 2014)

Tests used:
[1] = humans, after mushroom consumption (0 g, 8 g, 16 g doses); cited from earlier work
glutathione = test: Glutathione levels in plasma, cortex and midbrain of Parkinson's model mice, by glutathione assay; assay type: in vivo, mouse; conditions: compared with knockout mice
Description: Matched cohorts of SNCA transgenic mouse model of PD were used to measure the therapeutic efficacy of ErgoD2™ to control movement disorder, improve grip strength, and lower alpha-synuclein in the cortex and/or midbrain of the PD animals. Additionally, alpha-synuclein was measured in the plasma, and glutathione was measured in the plasma, cortex and midbrain. IL-6 measurements and an immunohistochemistry study will also be performed on intestinal tissues to see if there are pathologic variances in intestinal function between cohorts, which could be associated with disease onset and progression.
Concentrations of glutathione present in midbrain homogenates (nM), as measured by glutathione assay.
Concentrations of glutathione present in cortex homogenates (nM), as measured by glutathione assay. Error bars represent±standard error. Glutathione is a major protective antioxidant in animal cells. It is present most abundantly in its reduced form (GSH) in healthy cells. The levels of GSH and glutathione disulfide (GSSG), the oxidized form, are used as indicators of oxidative stress and overall cell health. One of the well-established markers of PD is a decrease in glutathione levels in the substantia nigra (SN). This decrease is specific to the SN and is not observed in other sections of the PD brain.

insulin resistance = conditions: cited from earlier work

In the case of C[N+](C)(C)[C@@H](Cc1c[nH]c(=S)[nH]1)C(=O)[O-] [L-Ergothioneine], the “time of peak of ET in red blood cells (RBC)” value [1] is given as 2 h.
In the case of CC(=O)N[C@@H](CS)C(=O)O [NAC, n-acetyl cysteine], the “cortex glutathione concentration, treated transgenic versus knockout mice” value (glutathione) is reported as “no significant differences”.
In the case of vitamin D, the “improvement of insulin resistance” value (insulin resistance; bringing 25(OH)D levels above 80 nmol/L) is listed as 12% and the “improvement in insulin sensitivity” value (insulin resistance; increasing vitamin D levels from 25 to 75 nmol/L) is listed as 60%.
